Experimental data from US8242088B2, “Carrier vectors through an epithelium with tight junctions” (Centre National de la Recherche Scientifique, priority 2000, dated 2012).
No end group written: not given here.

Test system: MDCK (Madin-Darby Canine Kidney) cells
Assay: Passage across an epithelium with tight junctions (TRANSWELL system)
Type: in vitro ADME
Details: for passage into the apical compartment: Example 4: basolateral compartment, 10 μM, 30 minutes at 370° C.
Protocol: The passage of the Penet and NES-Penet peptides across an epithelium with tight junctions was evaluated using the device (TRANSWELL system, CORNING-COSTAR) represented in FIG. 3.
This device comprises two compartments (1, 2) separated by a microporous polyester membrane (3) on which an epithelium (4) consisting of MDCK (Madin-Darby Canine Kidney) cells has been established. The cells are seeded and grow to confluence.
The compartment (1) in contact with the microporous membrane and the basolateral pole of the cells is referred to as the basolateral compartment. The compartment (2), in contact with the apical pole of the cells, is referred to as the apical compartment.
Each of the compartments is filled with medium consisting of the following: Minimum Essential Medium with Earle Salt (MEM), 2 mM glutamine, 2 mM Hepes, pH 7, 5 U/ml penicillin, 5 μg/ml streptomycin, supplemented with a mixture of protease inhibitors.
For each experiment, the integrity of the tight junctions is controlled by measuring the resistance between the two compartments (R>2000Ω/cm^2).
Moreover, the tightness of the epithelium was also verified by adding […] inulin (6.5×10^5 cpm/compartment), either to the apical compartment or to the basolateral compartment, and measuring the radioactivity in the other compartment 180 minutes later. […]
The peptides are precipitated by adding 10% trichloro-acetic acid (TCA), and taken up in boiling Laemmli medium. […] The presence of the Penet-1 or NES-Penet peptides in the starting compartment, in the end compartment, or inside the cells, is detected by revelation with streptavidin-peroxidase as indicated in Example 1 above. […]
At the end of the incubation, the contents of the basolateral compartment and of the apical compartment, and that of the cells, were analyzed as described above in order to detect the presence of the NES-Penet peptide.
Furthermore, the passage of the peptides across an epithelium with tight junctions was evaluated using the device described in Example 2 above. […]

CC[C@H](C)[C@H](NC(=O)[C@H](CCCCN)NC(=O)[C@@H]1CCCN1C(=O)[C@H](CCC(N)=O)NC(=O)[C@H](CCCNC(=N)N)NC(=O)[C@H](CCC(=O)O)NC(=O)[C@H](CC(N)=O)NC(=O)[C@H](CC(C)C)NC(=O)CNC(=O)[C@H](CC(C)C)NC(=O)[C@H](CCC(=O)O)NC(=O)[C@H](CCC(N)=O)NC(=O)[C@H](C)NC(=O)[C@H](CC(C)C)NC(=O)[C@H](CO)NC(=O)[C@H](CCC(N)=O)NC(=O)CCCCNC(=O)CCCC[C@@H]1SC[C@@H]2NC(=O)N[C@@H]21)C(=O)N[C@@H](Cc1c[nH]c2ccccc12)C(=O)N[C@@H](Cc1ccccc1)C(=O)N1CCC[C@H]1C(=O)N[C@@H](CC(N)=O)C(=O)N[C@@H](CCCNC(=N)N)C(=O)N[C@@H](CCCNC(=N)N)C(=O)N[C@@H](CCCCN)C(=O)N1CCC[C@H]1C(=O)N[C@@H](Cc1c[nH]c2ccccc12)C(=O)N[C@@H](CCCCN)C(=O)N[C@@H](CCCCN)C(=O)O [NES-Pen3P]
passage into the apical compartment: much greater

CC[C@H](C)[C@H](NC(=O)[C@H](CCCCN)NC(=O)[C@@H](NC(=O)[C@H](CCC(N)=O)NC(=O)[C@H](CCCNC(=N)N)NC(=O)[C@H](CCC(=O)O)NC(=O)[C@H](CC(N)=O)NC(=O)[C@H](CC(C)C)NC(=O)CNC(=O)[C@H](CC(C)C)NC(=O)[C@H](CCC(=O)O)NC(=O)[C@H](CCC(N)=O)NC(=O)[C@H](C)NC(=O)[C@H](CC(C)C)NC(=O)[C@H](CO)NC(=O)[C@H](CCC(N)=O)NC(=O)CCCCNC(=O)CCCC[C@@H]1SC[C@@H]2NC(=O)N[C@@H]21)[C@@H](C)CC)C(=O)N[C@@H](Cc1c[nH]c2ccccc12)C(=O)N[C@@H](Cc1ccccc1)C(=O)N[C@@H](CCC(N)=O)C(=O)N[C@@H](CC(N)=O)C(=O)N[C@@H](CCCNC(=N)N)C(=O)N[C@@H](CCCNC(=N)N)C(=O)N[C@@H](CCSC)C(=O)N[C@@H](CCCCN)C(=O)N[C@@H](Cc1c[nH]c2ccccc12)C(=O)N[C@@H](CCCCN)C(=O)N[C@@H](CCCCN)C(=O)O [NES-Penet]
degradation of the peptide during passage: not accompanied by any degradation

RQPKIWFPNRRKPWKK [Pen3P, RQPKIWFPNRRKPWKK, reference compound]
passage into the apical compartment: very slight passage
